Measured values from PubChem BioAssay (NCI).
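In this assay, cells in 96-well plates receive the compound at five concentrations for 48 hours. Endpoints are linearly interpolated between the surrounding concentrations. TGI denotes the concentration required for complete inhibition of growth.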

How the values were obtained:
Test in all cases: inhibition of tumour cell growth, NCI panel, 48 h
786-0 renal = system: 786-0 renal
DMS 114 small cell lung = system: DMS 114 small cell lung
CAKI-1 renal = system: CAKI-1 renal
HCT-15 colon = system: HCT-15 colon
DMS 273 small cell lung = system: DMS 273 small cell lung
A498 renal = system: A498 renal
TK-10 renal = system: TK-10 renal
SK-MEL-2 melanoma = system: SK-MEL-2 melanoma
COLO 205 colon = system: COLO 205 colon
HOP-62 NSCLC = system: HOP-62 NSCLC
LOX IMVI melanoma = system: LOX IMVI melanoma
SK-MEL-5 melanoma = system: SK-MEL-5 melanoma
U251 CNS = system: U251 CNS
KM20L2 colon = system: KM20L2 colon
HCT-116 colon = system: HCT-116 colon
IGROV1 ovarian = system: IGROV1 ovarian
SF-268 CNS = system: SF-268 CNS
CCRF-CEM leukemia = system: CCRF-CEM leukemia
SNB-78 CNS = system: SNB-78 CNS
NCI-H522 lung = system: NCI-H522 lung
SW-620 colon = system: SW-620 colon
OVCAR-4 ovarian = system: OVCAR-4 ovarian
LXFL 529 NSCLC = system: LXFL 529 NSCLC
HT29 colon = system: HT29 colon
OVCAR-8 ovarian = system: OVCAR-8 ovarian
A549 NSCLC = system: A549 NSCLC
NCI-H226 lung = system: NCI-H226 lung
OVCAR-5 ovarian = system: OVCAR-5 ovarian
RXF 393 renal = system: RXF 393 renal
KM12 colon = system: KM12 colon
ACHN renal = system: ACHN renal
NCI-H460 lung = system: NCI-H460 lung
SF-295 CNS = system: SF-295 CNS
DLD-1 colon = system: DLD-1 colon
OVCAR-3 ovarian = system: OVCAR-3 ovarian
UO-31 renal = system: UO-31 renal
M19-MEL melanoma = system: M19-MEL melanoma
SNB-75 CNS = system: SNB-75 CNS
NCI-H23 lung = system: NCI-H23 lung
K-562 leukemia = system: K-562 leukemia
SK-OV-3 ovarian = system: SK-OV-3 ovarian
HL-60(TB) leukemia = system: HL-60(TB) leukemia
SR leukemia = system: SR leukemia
XF 498 CNS = system: XF 498 CNS
MALME-3M melanoma = system: MALME-3M melanoma
SF-539 CNS = system: SF-539 CNS
MOLT-4 leukemia = system: MOLT-4 leukemia
EKVX NSCLC = system: EKVX NSCLC
SNB-19 CNS = system: SNB-19 CNS
UACC-62 melanoma = system: UACC-62 melanoma
UACC-257 melanoma = system: UACC-257 melanoma
M14 melanoma = system: M14 melanoma
SN12C renal = system: SN12C renal
HCC-2998 colon = system: HCC-2998 colon
HOP-18 NSCLC = system: HOP-18 NSCLC
HOP-92 NSCLC = system: HOP-92 NSCLC
RPMI-8226 leukemia = system: RPMI-8226 leukemia

Measured: TGI

Cc1c(C2Cc3ccccc3N2)c2ccccc2n1C (centres undefined)
> 100 µM: 786-0 renal | DMS 114 small cell lung | CAKI-1 renal | HCT-15 colon | DMS 273 small cell lung | A498 renal | TK-10 renal | SK-MEL-2 melanoma | COLO 205 colon | HOP-62 NSCLC | LOX IMVI melanoma | SK-MEL-5 melanoma | U251 CNS | KM20L2 colon | HCT-116 colon | IGROV1 ovarian | SF-268 CNS | CCRF-CEM leukemia | SNB-78 CNS | NCI-H522 lung | SW-620 colon | OVCAR-4 ovarian | LXFL 529 NSCLC | HT29 colon | OVCAR-8 ovarian | A549 NSCLC | NCI-H226 lung | OVCAR-5 ovarian | RXF 393 renal | KM12 colon | ACHN renal | NCI-H460 lung | SF-295 CNS | DLD-1 colon | OVCAR-3 ovarian | UO-31 renal | M19-MEL melanoma | SNB-75 CNS | NCI-H23 lung | K-562 leukemia | SK-OV-3 ovarian | HL-60(TB) leukemia | SR leukemia | XF 498 CNS | MALME-3M melanoma | SF-539 CNS | MOLT-4 leukemia | EKVX NSCLC | SNB-19 CNS | UACC-62 melanoma | UACC-257 melanoma | M14 melanoma | SN12C renal | HCC-2998 colon

CSc1nc(NC2OC(COC(C)=O)C(OC(C)=O)C(OC(C)=O)C2OC(C)=O)c(N=C(C)C(C)=O)c(=O)n1C (centres undefined)
> 100 µM: 786-0 renal | DMS 114 small cell lung | CAKI-1 renal | TK-10 renal | SK-MEL-2 melanoma | COLO 205 colon | HOP-62 NSCLC | SK-MEL-5 melanoma | HCT-116 colon | IGROV1 ovarian | CCRF-CEM leukemia | SNB-78 CNS | SW-620 colon | OVCAR-4 ovarian | LXFL 529 NSCLC | HOP-18 NSCLC | HT29 colon | OVCAR-8 ovarian | A549 NSCLC | NCI-H226 lung | KM12 colon | SF-295 CNS | DLD-1 colon | OVCAR-3 ovarian | UO-31 renal | M19-MEL melanoma | K-562 leukemia | SK-OV-3 ovarian | HOP-92 NSCLC | HL-60(TB) leukemia | MALME-3M melanoma | SF-539 CNS | MOLT-4 leukemia | EKVX NSCLC | SNB-19 CNS | UACC-62 melanoma | UACC-257 melanoma | M14 melanoma | RPMI-8226 leukemia | HCC-2998 colon
